According to ChEMBL document CHEMBL6153067, “Transition State Analogs of Human DNPH1 Reveal Two Electrophile Migration Mechanisms” (J Med Chem, 2025):
Blank lines part the entries; values can stand above or below the compound they belong to. The source made the active and inactive calls. No cut-off for these calls is given here.

What was measured:
[1] = biological target: T1, 5-hydroxymethyl-dUMP N-hydrolase (Homo sapiens, UniProt O43598); assay: Competitive inhibition of wild-type truncated human DNPH1 extracted from Escherichia coli BL21DE3 using hmdUMP as substrate preincubated for 30 mins followed by substrate addition measured after 60 mins in presence of NADH
T1 sequence (O43598 whole entry): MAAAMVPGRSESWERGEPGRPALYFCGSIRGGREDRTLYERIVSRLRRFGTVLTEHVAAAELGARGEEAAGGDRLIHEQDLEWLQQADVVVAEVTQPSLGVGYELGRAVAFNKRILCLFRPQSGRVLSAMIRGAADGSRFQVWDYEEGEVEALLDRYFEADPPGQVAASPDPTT

[2] = biological target: T1, 5-hydroxymethyl-dUMP N-hydrolase; assay: Binding affinity to DNPH1 (unknown origin) assessed as equilibrium constant
[3] = biological target: T1, 5-hydroxymethyl-dUMP N-hydrolase; assay: Inhibition of wild-type truncated human DNPH1 extracted from Escherichia coli BL21DE3 assessed as decrease in hmdUMP hydrolysis preincubated for 30 mins followed by hmdUMP addition measured after 30 mins in presence of NADH
[4] = biological target: T2, 5-hydroxymethyl-dUMP N-hydrolase (Homo sapiens) (UniProt O43598); conditions: dose 1.0 mM, time 30.0 min
T2 sequence (whole entry): T1 sequence (O43598 whole entry)

[5] = biological target: T1, 5-hydroxymethyl-dUMP N-hydrolase; assay: Binding affinity to wild-type truncated human DNPH1 extracted from Escherichia coli BL21DE3 assessed as dissociation constant by ITC analysis

SMILES: O=c1[nH]cc(CN2C[C@H](COP(=O)(O)O)[C@@H](O)C2)cc1CO
Ki [1]: 0.61 µM

SMILES: O=P(O)(O)OC[C@H]1CN(Cc2ccccc2)C[C@@H]1O
Ki [1]: > 50 µM

SMILES: O=P(O)(O)OC[C@H]1CN(Cc2cccnc2)C[C@@H]1O
Ki [1]: 20.7 µM

SMILES: O=P(O)(O)OC[C@H]1CNC[C@@H]1O
Ki [1]: 3.3 µM
Kd [5]: 1.3 µM

SMILES: COc1nc(OC)c(CN2C[C@H](COP(=O)(O)O)[C@@H](O)C2)cc1F
Ki [1]: 12.3 µM

SMILES: O=P(O)(O)OC[C@H]1CNC[C@@H]1OP(=O)(O)O
Ki [1]: > 50 µM

SMILES: O=P(O)(O)OC[C@H]1CN(Cc2cncc(CO)c2)C[C@@H]1O
Ki [1]: 3.67 µM

SMILES: O=c1[nH]cccc1CN1C[C@H](COP(=O)(O)O)[C@@H](O)C1
Ki [1]: 36.8 µM

SMILES: O=P(O)(O)OC[C@H]1NCC[C@@H]1O
Ki [1]: > 50 µM

SMILES: O=c1cc(CN2C[C@H](COP(=O)(O)O)[C@@H](O)C2)[nH]c(=O)[nH]1
Ki [1]: 5.17 µM

The remaining lines, values ahead:

Ki [1]: 5.14 µM
SMILES: O=P(O)(O)OC[C@H]1CN(Cc2cc(CO)c(F)nc2F)C[C@@H]1O

Ki [1]: 2.85 µM
SMILES: Nc1ncnc2c(CN3C[C@H](COP(=O)(O)O)[C@@H](O)C3)c[nH]c12

Ki [1]: > 50 µM
SMILES: O=c1[nH]c(CN2C[C@H](COP(=O)(O)O)[C@@H](O)C2)c(CO)c(=O)[nH]1

Kd [2]: 6.3 µM
SMILES: O=c1[nH]c(=O)n([C@H]2C[C@H](O)[C@@H](CP(=O)(O)O)O2)cc1CO

Ki [1]: > 50 µM
SMILES: O=P(O)(O)OC[C@H]1NC[C@H](O)[C@@H]1O

IC50 [3]: 1.3 µM
Kd [1]: 0.6 µM
inhibition [4]: Active; Potent Than Ump
SMILES: O=c1[nH]c(=O)n([C@@H]2O[C@H](COP(=O)(O)O)[C@@H](O)[C@H]2O)cc1CO

IC50 [3]: > 100 µM
Kd [1]: > 50 µM
SMILES: O=c1[nH]c(=O)n([C@@H]2O[C@H](COP(=O)(O)O)[C@@H](O)[C@@H]2O)cc1CO

IC50 [3]: 1.5 µM
Kd [1]: 0.57 µM
Kd [5]: 0.43 µM
inhibition [4]: Active; Potent Than Ump
SMILES: O=c1[nH]c(=O)n([C@@H]2O[C@H](COP(=O)(O)O)[C@@H](O)[C@@H]2F)cc1CO

Ki [1]: 25.8 µM
SMILES: O=P(O)(O)OC[C@H]1CN(Cc2ccc(F)nc2F)C[C@@H]1O

Ki [1]: 6.5 µM
SMILES: Nc1nc2c(CN3C[C@H](COP(=O)(O)O)[C@@H](O)C3)c[nH]c2c(=O)[nH]1
